Values quoted from earlier work in patent US8680143B2, “Orally active curcuminoid compounds” (Laila Pharmaceuticals Pvt. Ltd., priority 2008, dated 2014).

O=C(C=Cc1ccc(O)c(O)c1)CC(=O)C=Cc1ccc(O)c(O)c1 [Bis-O-demethylcurcumin, 1,7-bis(3,4-dihydroxyphenyl)-1,6-heptadiene-3,5-dione]
oral bis-O-demethylcurcumin that enters the plasma: less than 1%
